Reference: EPA's ToxRefDB 2

How the values were obtained:
[1] = system: dog; conditions: Chronic toxicity; beagle; Oral; Feed; dose end: 104 week; group: systemic; systemic / clinical chemistry / [other] / [other] + systemic / pathology microscopic / liver / pigmentation + systemic / pathology …
[2] = system: rat; conditions: Subchronic oral toxicity in rodents, wistar, Feed, dose end: 13 week, group: systemic, systemic / organ weight / spleen / absolute + systemic / organ weight / spleen / relative to body weight + systemic / pathology microscopic…
[3] = system: dog; conditions: Subchronic oral toxicity in nonrodent, beagle, Capsule, dose end: 13 week, group: systemic, systemic / clinical chemistry / albumin / albumin + systemic / clinical chemistry / protein / protein + systemic / in life observation / …
[4] = system: rat; conditions: Acute dermal toxicity, other, Topical, dose end: 28 day, group: systemic, systemic / pathology microscopic / thymus / necrosis
[5] = system: mouse; conditions: Carcinogenicity, cd1, Oral, Feed, dose end: 80 week, group: systemic
[6] = system: rat; conditions: Chronic toxicity, other, Oral, Feed, dose end: 102 week, group: systemic
[7] = system: rat; conditions: Carcinogenicity, fischer, Oral, Feed, dose end: 2 year, group: systemic, systemic / in life observation / clinical signs / urine
[8] = system: mouse; conditions: Multigenerational reproductive toxicity study, cd1, Oral, Feed, dose end: 2 generation
[9] = system: mouse; conditions: Subchronic oral toxicity in rodents, b6c3f1, Feed, dose end: 13 week, group: systemic
[10] = system: mouse; conditions: Carcinogenicity, b6c3f1, Oral, Feed, dose end: 2 year, group: systemic
[11] = system: rat; conditions: Subchronic oral toxicity in rodents, fischer, Feed, dose end: 13 week, group: systemic
[12] = systemic / pathology microscopic / stomach / ulcer + systemic / hematology / anemia / anemia - nos + systemic / hematology / hematocrit (hct…
[13] = systemic / clinical chemistry / [other] / [other]
[14] = systemic / clinical chemistry / [other] / [other] + systemic / pathology microscopic / intestine small / pigmentation + systemic / pathology…
[15] = discoloration + systemic / pathology microscopic / kidney / adenoma + systemic / …
[16] = group: offspring, systemic / in life observation / body weight / offspring (pup) weight
[17] = group: parental, systemic / in life observation / food consumption / food consumption
[18] = group: reproductive, reproductive / offspring survival early / live fetuses / live fetuses + reproductive / reproductive performance / fertility / fertility
[19] = systemic / in life observation / body weight / body weight + systemic / pathology microscopic / epididymis / atypia cellular + systemic / …
[20] = systemic / in life observation / clinical signs / urine, discoloration + systemic / pathology microscopic / adrenal gland / hyperplasia + …
[21] = systemic / in life observation / clinical signs / urine, discoloration

Compound `Oc1cccc2cccnc12.Oc1cccc2cccnc12.[Cu]` [Copper-8-hydroxyquinoline (1:2)] has an LEL [1] of 25 mg/kg/day, an LOAEL [1] of 25 mg/kg/day and an NEL [1] of 5 mg/kg/day. It also gave an NOAEL [1] of 5 mg/kg/day, an LEL [2] of 100 mg/kg/day and an LOAEL [2] of 100 mg/kg/day. It also gave an NEL [2] of 30 mg/kg/day, an NOAEL [2] of 30 mg/kg/day and an LEL [3] of 50 mg/kg/day. It also gave an LOAEL [3] of 50 mg/kg/day, an NEL [3] of 5 mg/kg/day and an NOAEL [3] of 5 mg/kg/day. The LEL [4] was 1000 mg/kg/day, the LOAEL [4] was 1000 mg/kg/day and the NEL [4] was 200 mg/kg/day. It also gave an NOAEL [4] of 200 mg/kg/day, an LOAEL ([5]; systemic / pathology microscopic / stomach / ulcer) of 208 mg/kg/day and an NEL [5, 12] of 57.1 mg/kg/day. It also gave an NOAEL [5, 12] of 57.1 mg/kg/day, an LEL ([5]; systemic / pathology microscopic / stomach / ulcer + systemic / pathology microscopic / spleen / hematopoietic cell proliferation) of 208 mg/kg/day and an LEL [6, 13] of 0.25 mg/kg/day. For the same compound, the NEL [6, 13] was less than 0.25 mg/kg/day, the LOAEL [6, 14] was 100 mg/kg/day and the NOAEL [6, 14] was 25 mg/kg/day.

Work on `O=C1CN(/N=C/c2ccc([N+](=O)[O-])o2)C(=O)N1` [Nitrofurantoin] yielded an LEL ([7]; discoloration) of 30 mg/kg/day, an NEL ([7]; discoloration) of less than 30 mg/kg/day and an LOAEL [7, 15] greater than 60 mg/kg/day. The NOAEL [7, 15] was no less than 60 mg/kg/day, the LEL [8, 16] was 99.2 mg/kg/day and the LOAEL [8, 16] was greater than 213 mg/kg/day. For the same compound, the NEL [8, 16] was 43.8 mg/kg/day, the NOAEL [8, 16] was no less than 213 mg/kg/day and the LEL [8, 17] was 164 mg/kg/day. The LOAEL [8, 17] was greater than 164 mg/kg/day, the NEL [8, 17] was 88.7 mg/kg/day and the NOAEL [8, 17] was no less than 164 mg/kg/day. For the same compound, the LEL [8, 18] was 213 mg/kg/day, the LOAEL [8, 18] was greater than 213 mg/kg/day and the NEL [8, 18] was 99.2 mg/kg/day. The NOAEL [8, 18] was no less than 213 mg/kg/day, the NOAEL ([9]; systemic / in life observation / body weight / body weight + systemic / pathology microscopic / ovary / necrosis + systemic / in life …) was 375 mg/kg/day and the LOAEL ([9]; systemic / in life observation / body weight / body weight + systemic / pathology microscopic / ovary / necrosis + systemic / pathology …) was 750 mg/kg/day. It also gave an LEL ([9]; systemic / pathology microscopic / testes / aspermatogenesis + systemic / pathology microscopic / testes / degeneration) of 195 mg/kg/day, an NEL ([9]; systemic / pathology microscopic / testes / aspermatogenesis + systemic / pathology microscopic / testes / degeneration + systemic / in life…) of 90 mg/kg/day and an LOAEL [10, 19] of 570 mg/kg/day. It also gave an NOAEL [10, 19] of 300 mg/kg/day, an LEL [10, 20] of 280 mg/kg/day and an NEL [10, 20] of less than 280 mg/kg/day. The NOAEL ([11]; systemic / in life observation / body weight / body weight + systemic / in life observation / clinical signs / urine, discoloration + …) was 65 mg/kg/day, the LOAEL ([11]; systemic / in life observation / body weight / body weight + systemic / pathology microscopic / testes / degeneration) was 125 mg/kg/day and the LEL [11, 21] was 30 mg/kg/day. For the same compound, the NEL [11, 21] was less than 30 mg/kg/day.
